Literature values, collected in article PMC10384408, “Anticancer Tungstenocenes with a Diverse Set of (O,O–), (O,S–) and (O,N–) Chelates—A Detailed Biological Study Using an Improved Evaluation via 3D Spheroid Models” (Pharmaceutics, 2023).

How the values were obtained:
Settings in all cases: MTT assay, 96 h; cited from earlier work
[1] = test system: SW480 (colon carcinoma) cells
[2] = test system: A549 (non-small cell lung carcinoma) cells
[3] = test system: CH1/PA-1 (ovarian teratocarcinoma) cells

| SMILES | IC50 [1] [µM] | IC50 [2] [µM] | IC50 [3] [µM] |
| --- | --- | --- | --- |
| Cc1occc(=O)c1[O-].F[P-](F)(F)(F)(F)F.[Mo+4].c1cc[cH-]c1.c1cc[cH-]c1 [[Cp2Mo(L1)]PF6] | > 200 | > 200 | > 200 |
| Cc1occc(=S)c1[O-].F[P-](F)(F)(F)(F)F.[Mo+4].c1cc[cH-]c1.c1cc[cH-]c1 [[Cp2Mo(L2)]PF6] | 55 ± 9 | 106 ± 15 | 29 ± 10 |
| F[P-](F)(F)(F)(F)F.O=c1c([O-])c(-c2ccc(Cl)cc2)oc2ccccc12.[Mo+4].c1cc[cH-]c1.c1cc[cH-]c1 [[Cp2Mo(L3)]PF6] | 5.6 ± 0.2 | 24 ± 4 | 1.7 ± 0.4 |
| F[P-](F)(F)(F)(F)F.[Mo+4].[O-]c1c(-c2ccc(Cl)cc2)oc2ccccc2c1=S.c1cc[cH-]c1.c1cc[cH-]c1 [[Cp2Mo(L4)]PF6] | 1.6 ± 0.2 | 5.7 ± 1 | 0.72 ± 0.13 |
| F[P-](F)(F)(F)(F)F.O=C([O-])c1ccccn1.[Mo+4].c1cc[cH-]c1.c1cc[cH-]c1 [[Cp2Mo(L5)]PF6] | > 200 | > 200 | > 200 |
